≈ marks a conversion by molar mass, not a printed value. Like-named read-outs stand apart in the source and are kept apart here. *1 amine or outer side, *2 acyl side, *3 side chain or, on linkers, in order; H or OH if unused. Where a SMILES comes first, the peptide text is derived from it. Bridges are numbered along the chain shown (N, C = ends). [ ]: non-standard residue; d: D form. ξ: configuration not given here. Adda = CO[C@@H](Cc1ccccc1)[C@@H](C)/C=C(C)/C=C/[C@H](N[*:1])[C@H](C)C(=O)[*:2]; Trp(2-yl) = O=C([C@H](Cc1c([*:3])[nH]c2ccccc12)N[*:1])[*:2]; dAsp(3S-Me) = C[C@H](C(=O)[*:3])[C@@H](N[*:1])C(=O)[*:2]; ξTrp(2-yl) = O=C(C(Cc1c([*:3])[nH]c2ccccc12)N[*:1])[*:2]; Leu(4R-OH,5-OH) = C[C@](O)(CO)C[C@H](N)C(=O)O; d(γGlu) = O=C(O)[C@@H](CCC(=O)[*:2])N[*:1]; X1 = CC(O)(CO)CC(N[*:1])C(=O)[*:2]; cisHyp = O=C(O)[C@@H]1C[C@H](O)CN1; ξAsp(3ξ-OH) = NC(C(=O)O)C(O)C(=O)O; Hyp = O=C(O)[CH]1C[CH](O)CN1; NMeDha = C=C(NC)C(=O)O
Assays:
mAb AMA9C12 = assay: indirect competitive ELISA (cELISA) with mAb AMA9C12; format: binding, mouse
mAb AMA9G3 = assay: indirect competitive ELISA (cELISA) with mAb AMA9G3; format: binding, mouse; details: for working range of detection (estimated as IC30 to IC80): AMA9G3
[1] = system: polyclonal antibody (pAb); details: Bühlmann Assay ref 15; cited from earlier work
[2] = system: single chain variable fragment of a mAb; details: single chain variable fragment of a mAb ref 24; cited from earlier work
mice = mice ref 6; cited from earlier work
humans = humans ref 7; cited from earlier work
mAb = details: another mAb, different coupling strategy ref 16; cited from earlier work
[3] = mAb AMA9C12, coating antigen PERI-AMA-BSA, triplicate
[4] = mAb AMA9C12, (IC50 α-AMA)/(IC50 test inhibitor) × 100
[5] = mAb AMA9G3, coating antigen PERI-AMA-BSA, triplicate
[6] = mAb AMA9G3, (IC50 α-AMA)/(IC50 test inhibitor) × 100

SMILES	IC50 (mAb AMA9C12; [3])	Cross Reactivity (%) (mAb AMA9C12; [4])	IC50 (mAb AMA9G3; [5])	Cross Reactivity (%) (mAb AMA9G3; [6])	Cross Reactivity (%) [1]	further results
CN(C)CCc1c[nH]c2cccc(OP(=O)(O)O)c12 [psilocybin]	>1 µg/mL	<0.3%	>1 µg/mL	<0.3%		
N[C@H](C(=O)O)c1cc(=O)[nH]o1 [ibotenic acid]	>1 µg/mL	<0.3%	>1 µg/mL	<0.3%		
C=C1C(=O)N[C@H](C)C(=O)N[C@@H](CC(C)C)C(=O)N[C@@H](C(=O)O)[C@H](C)C(=O)N[C@@H](CCCNC(=N)N)C(=O)N[C@@H](/C=C/C(C)=C/[C@H](C)[C@H](Cc2ccccc2)OC)[C@H](C)C(=O)N[C@@H](C(=O)O)CCC(=O)N1C [microcystin-LR] (R[Adda][d(γGlu)][NMeDha][dA]L[dAsp(3S-Me)]-OH; lactam N-7)						Cross Reactivity (%) (mAb AMA9C12): <0.3%; IC50 (mAb AMA9C12): >1 µg/mL; Cross Reactivity (%) (mAb AMA9G3): <0.3%; IC50 (mAb AMA9G3): >1 µg/mL
C[C@@H]1NC(=O)[C@H](C[C@@](C)(O)CO)NC(=O)[C@@H]2Cc3c([nH]c4ccccc34)SC[C@H](NC(=O)[C@@H]([C@H](C)O)NC1=O)C(=O)N1C[C@@H](O)C[C@H]1C(=O)N[C@@H](C)C(=O)N2 [phalloidin] (cyclo(A[dT]C[cisHyp]A[Trp(2-yl)][Leu(4R-OH,5-OH)]); thioether 3-6)	>1 µg/mL	<0.3%	>1 µg/mL	<0.3%	Not detected	
CC[C@H](C)[C@@H]1NC(=O)CNC(=O)[C@@H]2Cc3c([nH]c4cc(O)ccc34)[S@+]([O-])C[C@H](NC(=O)CNC1=O)C(=O)N[C@@H](CC(N)=O)C(=O)N1C[C@H](O)C[C@H]1C(=O)N[C@@H]([C@@H](C)[C@@H](O)CO)C(=O)N2 [α-amanitin]	0.00266 ± 0.00018 µg/mL (≈ 0.00289 µM)	100%	0.00157 ± 7e-05 µg/mL (≈ 0.00171 µM)	100%	100%	IC50 [2]: 0.077 µg/mL (≈ 0.0838 µM); competitive inhibition / binding (in words) (mAb AMA9C12; mAb AMA9C12): competitively inhibited; LD50 (mice): 0.1 mg/kg; dose severely toxic (humans): 0.3 mg/kg; working range of detection (estimated as IC30 to IC80) (mAb AMA9G3): 0.0007 to 0.0031 µg/mL; competitive inhibition / binding (in words) (mAb AMA9G3; mAb AMA9G3): competitively inhibited; IC50 (mAb AMA9G3; mAb AMA9G3, coating antigen PERI-AMA-BSA, triplicate, listed as α-AMA): ≈ 1.6 ng mL^−1; IC50 (mAb): 0.066 µg/mL (≈ 0.0718 µM)
CC[C@H](C)[C@@H]1NC(=O)CNC(=O)[C@@H]2Cc3c([nH]c4cc(O)ccc34)[S+]([O-])C[C@H](NC(=O)CNC1=O)C(=O)N[C@@H](CC(=O)O)C(=O)N1CC(O)C[C@H]1C(=O)N[C@@H]([C@@H](C)[C@@H](O)CO)C(=O)N2 (stereo partly drawn) [β-amanitin]	>1 µg/mL	<0.3%	0.0242 ± 0.0062 µg/mL (≈ 0.0263 µM)	6.5%	0.1%	IC50 [2]: 0.115 µg/mL (≈ 0.125 µM); competitive inhibition / binding (in words) (mAb AMA9C12; mAb AMA9C12): no reduction in signal response; working range of detection (estimated as IC30 to IC80) (mAb AMA9G3): 0.0036 to 0.1291 µg/mL; competitive inhibition / binding (in words) (mAb AMA9G3; mAb AMA9G3): competitively inhibited; IC50 (mAb AMA9G3; mAb AMA9G3, coating antigen PERI-AMA-BSA, triplicate, listed as β-AMA): 0.024 µg/mL (≈ 0.0261 µM); IC50 (mAb): 0.097 µg/mL (≈ 0.105 µM)
CC1NC(=O)C2CC(O)CN2C(=O)C2CSc3[nH]c4ccccc4c3CC(NC1=O)C(=O)NC(CC(C)(O)CO)C(=O)NC(C(C)C)C(=O)NC(C(O)C(=O)O)C(=O)N2 (stereo not drawn) [phallacidin] (cyclo([ξAsp(3ξ-OH)]C[Hyp]A[ξTrp(2-yl)][X1]V); thioether 2-5; configuration not given here)	>1 µg/mL	<0.3%	>1 µg/mL	<0.3%	Not detected	
C/C=C1/C(=O)N[C@@H](C(=O)O)[C@H](C)C(=O)N[C@@H](CCCNC(=N)N)C(=O)N[C@@H](/C=C/C(C)=C/[C@H](C)[C@H](Cc2ccccc2)OC)[C@H](C)C(=O)N[C@@H](C(=O)O)CCC(=O)N1C [nodularin]						Cross Reactivity (%) (mAb AMA9C12): <0.3%; IC50 (mAb AMA9C12): >1 µg/mL; Cross Reactivity (%) (mAb AMA9G3): <0.3%; IC50 (mAb AMA9G3): >1 µg/mL
NCc1cc(=O)[nH]o1 [muscimol]	>1 µg/mL	<0.3%	>1 µg/mL	<0.3%		

Source: publication PMC6950293, “A Rapid Extraction Method Combined with a Monoclonal Antibody-Based Immunoassay for the Detection of Amatoxins” (Toxins, 2019)
